According to patent publication US20090203707A1, “METHODS FOR TREATING PAIN” (priority 2008, published 2009):
“Also recorded” adds a separate entry of the source. Like-named read-outs stand apart in the source and are kept apart here.

Experiments:
[1] = test system: CFA-induced mechanical allodynia; assay: CFA-induced mechanical allodynia, electro-von Frey withdrawal threshold; format: in vivo, Male Sprague Dawley rats
[2] = molecular target: rNav1.8 Na+ channels in ND7-23 cells (Rattus norvegicus, UniProt Q62968); assay: Whole-cell patch clamp, rNav1.8 INa in ND7-23 cells (Example 2); conditions: for Use-dependent block of rNav1.8 INa: 40 pulses of 10 msec to +50 mV; for Kd: estimated from shift of steady-state inactivation curve (Bean equation)
Chain of rNav1.8 Na+ channels in ND7-23 cells (Q62968 whole entry): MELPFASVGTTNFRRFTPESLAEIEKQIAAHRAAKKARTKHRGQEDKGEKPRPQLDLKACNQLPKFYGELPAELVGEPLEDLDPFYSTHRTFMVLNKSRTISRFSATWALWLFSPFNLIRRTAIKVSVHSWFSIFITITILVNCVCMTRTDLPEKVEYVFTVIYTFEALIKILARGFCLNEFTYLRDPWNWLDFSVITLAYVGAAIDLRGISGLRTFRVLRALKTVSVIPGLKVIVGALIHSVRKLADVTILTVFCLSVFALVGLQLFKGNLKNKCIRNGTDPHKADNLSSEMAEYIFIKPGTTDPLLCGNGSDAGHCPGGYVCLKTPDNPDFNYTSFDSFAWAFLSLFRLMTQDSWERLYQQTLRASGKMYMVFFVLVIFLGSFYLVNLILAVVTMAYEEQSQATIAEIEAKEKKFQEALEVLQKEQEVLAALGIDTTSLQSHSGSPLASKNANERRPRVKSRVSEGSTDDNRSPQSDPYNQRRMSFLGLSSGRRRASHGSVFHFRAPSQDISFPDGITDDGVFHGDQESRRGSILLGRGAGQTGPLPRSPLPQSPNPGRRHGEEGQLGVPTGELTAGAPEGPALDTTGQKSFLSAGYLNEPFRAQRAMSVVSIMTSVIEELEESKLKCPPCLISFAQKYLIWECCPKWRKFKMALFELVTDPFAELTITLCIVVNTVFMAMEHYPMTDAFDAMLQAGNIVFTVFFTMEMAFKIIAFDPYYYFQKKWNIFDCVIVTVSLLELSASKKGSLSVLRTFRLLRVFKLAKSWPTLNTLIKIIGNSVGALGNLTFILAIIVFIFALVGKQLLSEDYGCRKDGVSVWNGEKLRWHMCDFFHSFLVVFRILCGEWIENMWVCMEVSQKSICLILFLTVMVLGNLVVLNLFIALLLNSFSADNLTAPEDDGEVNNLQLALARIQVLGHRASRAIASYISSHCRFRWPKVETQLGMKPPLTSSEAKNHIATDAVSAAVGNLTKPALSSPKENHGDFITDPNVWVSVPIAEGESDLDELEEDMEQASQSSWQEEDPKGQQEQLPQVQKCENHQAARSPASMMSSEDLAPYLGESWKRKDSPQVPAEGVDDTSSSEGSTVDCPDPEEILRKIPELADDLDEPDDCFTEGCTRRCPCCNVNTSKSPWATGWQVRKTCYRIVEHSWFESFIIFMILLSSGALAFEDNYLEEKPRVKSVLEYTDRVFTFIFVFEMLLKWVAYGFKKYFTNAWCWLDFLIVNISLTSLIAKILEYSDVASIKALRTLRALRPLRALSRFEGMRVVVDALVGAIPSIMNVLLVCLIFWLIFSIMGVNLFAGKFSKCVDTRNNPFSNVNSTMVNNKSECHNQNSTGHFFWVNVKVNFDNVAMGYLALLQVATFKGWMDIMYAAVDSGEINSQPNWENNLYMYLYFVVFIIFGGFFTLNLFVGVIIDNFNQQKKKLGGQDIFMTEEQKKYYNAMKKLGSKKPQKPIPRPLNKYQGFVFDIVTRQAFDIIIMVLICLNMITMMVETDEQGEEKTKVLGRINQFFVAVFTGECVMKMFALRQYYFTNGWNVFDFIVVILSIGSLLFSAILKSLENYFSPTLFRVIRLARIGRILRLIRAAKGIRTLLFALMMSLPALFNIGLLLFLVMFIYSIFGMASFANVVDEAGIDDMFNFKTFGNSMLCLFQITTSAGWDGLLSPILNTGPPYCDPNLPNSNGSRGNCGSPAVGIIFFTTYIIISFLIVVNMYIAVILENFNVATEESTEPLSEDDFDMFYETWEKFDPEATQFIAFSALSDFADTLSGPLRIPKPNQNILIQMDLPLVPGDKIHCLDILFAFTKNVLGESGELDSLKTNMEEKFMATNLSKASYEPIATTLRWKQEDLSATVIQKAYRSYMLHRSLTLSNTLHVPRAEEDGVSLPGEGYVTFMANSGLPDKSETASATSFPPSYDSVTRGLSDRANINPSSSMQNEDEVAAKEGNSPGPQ

[3] = test system: Male Sprague Dawley rats
[4] = test system: hNav1.7 and rNav1.8 Na+ channels; assay: Rate of development of slow inactivation, stated for hNav1.7 and rNav1.8 together; format: cell-based; conditions: 30 μM
Protocol: The time dependence of development of inactivation of hNav1.7 (−20 mV, FIG. 7A, n=4-5 cells) and rNav1.8 (+20 mV, FIG. 7B, n=4-5 cells) INa in the absence (▪) and presence (□) of 30 μM ranolazine is shown in FIG. 7. For control conditions, the progressive decay of currents with increasing conditioning pulse duration reflects entry of channels into inactivated states. The development of slow inactivation of hNav1.7+β1 and rNav1.8 channels could be fit with double and triple exponential functions, respectively (see Table 6, control, Development of slow inactivation).
As shown previously, (Vijayaragavan et al (2001) J. Neurosci 21:7909-18) the onset of slow inactivation of Nav1.8 channels is rapid when compared to Nav1.7 channels (˜fourfold, see Table 6, control, τF=10.78 and 43.97 msec for Nav1.8 and Nav1.7 channels, respectively). […] The time constants for development of inactivation of hNav1.7 (n=4 cells) and rNav1.8 (n=5 cells) INa with a depolarizing prepulse to −40 mV (hNav1.7) or −20 mV (rNav1.8) in the absence and presence of 30 μM ranolazine are given in Table 6.

[5] = Solubility of Ranolazine in aqueous solutions versus pH; format: physicochemical
[6] = molecular target: SCN9A (Nav1.7) Na+ channel, α- and β1 subunits, in HEK293 cells (Homo sapiens, UniProt Q15858); assay: Whole-cell patch clamp, Nav1.7 peak INa in HEK293 cells (Example 1); conditions: for Mean amplitude of Nav1.7 peak INa, fraction of control: −100 mV to 0 mV, 50 msec
Chain of SCN9A (Nav1.7) Na+ channel, α- and β1 subunits, in HEK293 cells (Q15858 whole entry): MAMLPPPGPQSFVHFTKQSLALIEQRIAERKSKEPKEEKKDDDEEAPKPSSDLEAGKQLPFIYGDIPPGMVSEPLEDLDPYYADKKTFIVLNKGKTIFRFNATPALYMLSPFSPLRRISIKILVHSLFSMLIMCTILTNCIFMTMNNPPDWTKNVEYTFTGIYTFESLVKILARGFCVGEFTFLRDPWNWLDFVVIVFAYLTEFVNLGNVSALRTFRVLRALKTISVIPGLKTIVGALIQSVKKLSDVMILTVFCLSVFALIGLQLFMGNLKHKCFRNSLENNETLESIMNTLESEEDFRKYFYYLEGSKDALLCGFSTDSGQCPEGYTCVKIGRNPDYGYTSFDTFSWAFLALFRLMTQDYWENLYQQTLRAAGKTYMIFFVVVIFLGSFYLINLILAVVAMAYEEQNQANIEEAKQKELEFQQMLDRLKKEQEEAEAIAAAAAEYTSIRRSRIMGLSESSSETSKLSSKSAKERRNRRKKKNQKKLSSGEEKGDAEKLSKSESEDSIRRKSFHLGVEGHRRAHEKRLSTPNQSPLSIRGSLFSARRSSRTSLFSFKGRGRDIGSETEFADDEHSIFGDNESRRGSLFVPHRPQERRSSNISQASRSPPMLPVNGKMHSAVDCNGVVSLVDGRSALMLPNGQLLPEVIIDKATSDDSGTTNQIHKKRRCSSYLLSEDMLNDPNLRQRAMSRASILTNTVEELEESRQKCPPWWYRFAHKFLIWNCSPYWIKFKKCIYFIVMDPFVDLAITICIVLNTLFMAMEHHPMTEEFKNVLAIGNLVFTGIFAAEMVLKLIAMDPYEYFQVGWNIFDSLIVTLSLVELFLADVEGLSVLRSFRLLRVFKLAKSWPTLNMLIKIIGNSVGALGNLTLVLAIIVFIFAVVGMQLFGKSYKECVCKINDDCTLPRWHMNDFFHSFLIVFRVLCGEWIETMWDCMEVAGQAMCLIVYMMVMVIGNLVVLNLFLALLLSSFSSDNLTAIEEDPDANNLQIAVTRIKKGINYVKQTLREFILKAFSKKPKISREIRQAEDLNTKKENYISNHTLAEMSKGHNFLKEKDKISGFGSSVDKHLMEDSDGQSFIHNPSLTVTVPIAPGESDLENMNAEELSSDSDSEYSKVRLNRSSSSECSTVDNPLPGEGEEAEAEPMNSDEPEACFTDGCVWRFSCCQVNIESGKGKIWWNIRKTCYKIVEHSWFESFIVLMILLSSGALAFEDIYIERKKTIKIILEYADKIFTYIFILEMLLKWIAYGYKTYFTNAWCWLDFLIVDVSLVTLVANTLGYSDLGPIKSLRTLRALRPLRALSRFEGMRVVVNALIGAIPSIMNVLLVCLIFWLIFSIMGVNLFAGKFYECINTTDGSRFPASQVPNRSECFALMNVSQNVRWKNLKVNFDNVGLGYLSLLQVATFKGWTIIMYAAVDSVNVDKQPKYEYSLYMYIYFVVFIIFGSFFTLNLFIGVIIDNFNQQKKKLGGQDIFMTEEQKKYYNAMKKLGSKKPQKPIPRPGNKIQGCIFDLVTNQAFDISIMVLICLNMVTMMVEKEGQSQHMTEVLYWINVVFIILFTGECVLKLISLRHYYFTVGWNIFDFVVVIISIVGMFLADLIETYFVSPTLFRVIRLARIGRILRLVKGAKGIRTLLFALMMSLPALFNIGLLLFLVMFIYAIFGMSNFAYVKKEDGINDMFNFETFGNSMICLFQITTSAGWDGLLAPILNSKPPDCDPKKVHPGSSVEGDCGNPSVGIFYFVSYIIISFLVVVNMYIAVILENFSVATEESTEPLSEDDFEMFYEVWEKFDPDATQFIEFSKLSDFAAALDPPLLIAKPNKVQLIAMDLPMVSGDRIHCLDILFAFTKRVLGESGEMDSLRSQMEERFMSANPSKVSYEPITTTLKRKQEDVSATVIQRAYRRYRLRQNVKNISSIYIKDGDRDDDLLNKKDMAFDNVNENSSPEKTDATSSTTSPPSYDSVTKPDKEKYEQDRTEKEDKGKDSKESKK
Chain of SCN9A (Nav1.7) Na+ channel, α- and β1 subunits, in HEK293 cells (Q07699 19-218 partner): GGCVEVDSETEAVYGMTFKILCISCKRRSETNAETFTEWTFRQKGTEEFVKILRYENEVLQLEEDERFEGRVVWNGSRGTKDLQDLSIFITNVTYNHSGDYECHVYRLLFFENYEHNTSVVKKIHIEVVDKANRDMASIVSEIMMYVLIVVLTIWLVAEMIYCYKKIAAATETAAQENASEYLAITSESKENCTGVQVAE

[7] = test system: CFA-induced thermal hyperalgesia; assay: CFA-induced thermal hyperalgesia, paw withdrawal latency; format: in vivo, Male Sprague Dawley rats; conditions: day 3 after CFA
[8] = test system: endogenous TTX-S INa in ND7-23 cells; assay: cells; format: cell-based, rat DRG/mouse neuroblastoma hybrid; conditions: V0, recorded in the absence of TTX
[9] = molecular target: hNav1.7+β1 subunits in HEK293 cells (Homo sapiens, UniProt Q15858); assay: Whole-cell patch clamp, hNav1.7 INa in HEK293 cells (Example 2); conditions: for Kd: estimated from shift of steady-state inactivation curve (Bean equation); for IC50: IC50 value, block of Nav1.7 INa
Chain of hNav1.7+β1 subunits in HEK293 cells (Q15858 whole entry): as the sequence (Q15858 whole entry) above
Chain of hNav1.7+β1 subunits in HEK293 cells (Q07699 19-218 partner): as the sequence (Q07699 19-218 partner) above

[10] = 10 μM, 10 sec prepulse, n=6 cells
[11] = 10 μM, 100 msec prepulse, n=4 cells
[12] = Dissociation constant for inactivated state (Kdi)
[13] = Dissociation constant for rested state (Kdr)
[14] = male, Sprague Dawley, rat, in vivo, po
[15] = holding −100 mV to 0 mV, 0.1 Hz
[16] = 10 μM, 10 sec prepulse, n=4 cells

COc1ccccc1OCC(O)CN1CCN(CC(=O)Nc2c(C)cccc2C)CC1 (racemic) [Ranolazine, (±)-N-(2,6-dimethylphenyl)-4-[2-hydroxy-3-(2-methoxyphenoxy)-propyl]-1-piperazineacetamide]
Effect on mechanical allodynia (paw sensitivity to mechanical stimulation) ([1]; i.p. 10, 20, 50 mg/kg, 30 minutes after dosing, day 3 after CFA): clearly reduced paw sensitivity to mechanical stimulation in a dose-dependent fashion; also recorded: dose dependent reduction in mechanical allodynia | Dose at which maximum analgesic response was achieved ([1]; oral gavage, plateau to the analgesic response): 100 mg/kg | Analgesic effect at highest oral dose ([1]; p.o. 200 mg/kg): non-significant trend toward a reduction in analgesic effect | Effect on mechanical allodynia ([1]; p.o. 20, 50, 100, 200 mg/kg, 1 hour after gavage, day 3 after CFA): dose dependent reduction in mechanical allodynia | Optimum oral dosing for reduction of mechanical allodynia ([1]; p.o., no additional benefit at higher doses (FIG. 11 legend)): 50 mg/kg | IC50 [2]: 21.5 ± 3.01 µM | Inactivation V1/2 (steady-state intermediate, 1 sec prepulse) ([2]; 1 μM): −42.75 ± 3.93 mV | Inactivation slope factor K (1 sec prepulse) ([2]; 1 μM): 7.38 ± 0.93 mV/e-fold | Inactivation V1/2 (steady-state intermediate, 1 sec prepulse) ([2]; 3 μM): −47.61 ± 4.56 mV | Inactivation slope factor K (1 sec prepulse) ([2]; 3 μM): 7.14 ± 0.61 mV/e-fold | Activation V1/2 ([2]; 10 μM): 4.71 ± 2.58 mV | Activation slope factor K ([2]; 10 μM): 8.55 ± 1.62 mV/e-fold | Inactivation V1/2 (steady-state intermediate, 1 sec prepulse) ([2]; 10 μM): −57.88 ± 5.73 mV | Inactivation slope factor K (1 sec prepulse) ([2]; 10 μM): 7.59 ± 0.79 mV/e-fold | V1/2 of steady-state slow inactivation [2, 10]: −54.57±3.69 | k of steady-state slow inactivation [2, 10]: 8.38±0.76 | V1/2 of steady-state fast inactivation [2, 11]: −40.66±3.23 | k of steady-state fast inactivation [2, 11]: 11.45±1.21 | Inactivation V1/2 (steady-state intermediate, 1 sec prepulse) ([2]; 30 μM): −59.52 ± 2.18 mV | Inactivation slope factor K (1 sec prepulse) ([2]; 30 μM): 7.59 ± 1.09 mV/e-fold | Use-dependent block of rNav1.8 INa ([2]; 30 μM, 1 Hz): 60.20±2.04% | Use-dependent block of rNav1.8 INa ([2]; 30 μM, 5 Hz): 67.96±4.68% | Use-dependent block of rNav1.8 INa ([2]; 30 μM, 10 Hz): 70.16±2.09% | Development of slow inactivation, AF ([2]; 30 μM, at +20 mV): 0.53 ± 0.07 | Development of slow inactivation, AI ([2]; 30 μM, at +20 mV): 0.25 ± 0.07 | Development of slow inactivation, AS ([2]; 30 μM, at +20 mV): 0.09 ± 0.02 | Development of slow inactivation, τF ([2]; 30 μM, at +20 mV): 5.59 ± 1.08 ms | Development of slow inactivation, τI ([2]; 30 μM, at +20 mV): 34.11 ± 14.14 ms | Development of slow inactivation, τS ([2]; 30 μM, at +20 mV): 703.24 ± 373.82 ms | Time constant of INa decay (single exponential) ([2]; 30 μM, at +20 mV, n=4 cells): 1.60 ± 0.04 ms | Development of slow inactivation, AF ([2]; 30 μM, at −20 mV): 0.52 ± 0.05 | Development of slow inactivation, AI ([2]; 30 μM, at −20 mV): 0.30 ± 0.06 | Development of slow inactivation, AS ([2]; 30 μM, at −20 mV): 0.18 ± 0.03 | Development of slow inactivation, τF ([2]; 30 μM, at −20 mV): 22.75 ± 2.31 ms | Development of slow inactivation, τI ([2]; 30 μM, at −20 mV): 98.08 ± 13.65 ms | Development of slow inactivation, τS ([2]; 30 μM, at −20 mV): 1203.00 ± 337.50 ms | Steady-state use-dependent block of rNav1.8 INa ([2]; 100 μM, 3, 5, 20 or 200 msec pulses to +50 mV, 5 Hz): 71.69±0.85% | Kd [2, 12]: 0.64 µM | Kd [2, 13]: 22.8 µM | IC50 ([2]; IC50 value, block of Nav1.8 INa, V0.5, holding potential −40 mV): 4.33 ± 0.52 µM | Hill Coefficient, block of Nav1.8 INa ([2]; V0, holding potential −100 mV): [0.90 ± 0.11] | Hill Coefficient, block of Nav1.8 INa ([2]; V0.5, holding potential −40 mV): [0.89 ± 0.09] | Death ([3]; doses of 100 mg/kg (i.p.)): 50% | Doses at which adverse effects were noted ([3]; male, Sprague Dawley, rat, in vivo, ip): ≥ 100 mg/kg | Time of onset of adverse pulmonary event after drug administration [3, 14]: approximately 1 hour | Time to resolution of adverse pulmonary effect after gavage [3, 14]: ≤ 24 h | Adverse event ([3]; rat, in vivo, po): respiratory strider | Rate of development of slow inactivation, faster than control ([4]; −20 mV (hNav1.7), +20 mV (rNav1.8)): 2-5 fold | Rate of development of slow inactivation, faster than control ([4]; −40 mV (hNav1.7), −20 mV (rNav1.8)): 4-10 fold | USP Solubility Class ([5]; Solution pH 4.81): Freely Soluble | USP Solubility Class ([5]; Solution pH 4.89): Soluble | USP Solubility Class ([5]; Solution pH 4.90): Soluble | USP Solubility Class ([5]; Solution pH 5.04): Soluble | USP Solubility Class ([5]; Solution pH 5.35): Sparingly Soluble | USP Solubility Class ([5]; Solution pH 5.82): Slightly soluble | USP Solubility Class ([5]; Solution pH 6.46): Slightly soluble | USP Solubility Class ([5]; Solution pH 6.73): Very slightly soluble | USP Solubility Class ([5]; Solution pH 7.08): Very slightly soluble | USP Solubility Class ([5]; Solution pH 7.59 (unbuffered water)): Very slightly soluble | USP Solubility Class ([5]; Solution pH 7.79): Very slightly soluble | USP Solubility Class ([5]; Solution pH 12.66): Very slightly soluble | Mean amplitude of Nav1.7 peak INa, fraction of control ([6]; 1 μM, 0.1 Hz): 0.9114 | Mean amplitude of Nav1.7 peak INa, fraction of control ([6]; 3 μM, 0.1 Hz): 0.7275 | Mean amplitude of Nav1.7 peak INa, fraction of control ([6]; 10 μM, 0.1 Hz): 0.4692 | Mean amplitude of Nav1.7 peak INa, fraction of control ([6]; 30 μM, 0.1 Hz): 0.327 | Block of Nav1.7 peak INa at end of pulse train (pulse 40) ([6]; 100 μM, 40 pulses −100 to 0 mV, 2, 5, 20 or 200 msec, 5 Hz): ~82.72±0.71% | p of logistic fit (Hill coefficient nH) for block of Nav1.7 peak INa [6, 15]: 0.8368 | x0 of logistic fit (IC50) for block of Nav1.7 peak INa [6, 15]: 10.3585 μM | Effect on paw withdrawal from thermal stimulation ([7]; i.p. 10, 20, 50 mg/kg, 30 minutes after dosing): no significant effect on paw sensitivity was observed; also recorded: no significant effect of treatment on paw withdrawal from thermal stimulation | Effect on paw withdrawal from thermal stimulation ([7]; p.o. 20, 50, 100, 200 mg/kg, 1 hour after gavage): no significant effect of treatment on paw withdrawal from thermal stimulation | IC50 ([8]; ND7/23, read-out: IC50 value, block of TTX-S INa): 9.05 ± 0.56 µM | Hill Coefficient, block of TTX-S INa [8]: [1.15 ± 0.08] | Inactivation V1/2 (steady-state intermediate, 1 sec prepulse) ([9]; 1 μM): −78.97 ± 3.09 mV | Inactivation slope factor k (1 sec prepulse) ([9]; 1 μM): 4.80 ± 0.21 mV/e-fold | Inactivation V1/2 (steady-state intermediate, 1 sec prepulse) ([9]; 3 μM): −84.44 ± 3.64 mV | Inactivation slope factor k (1 sec prepulse) ([9]; 3 μM): 4.76 ± 0.11 mV/e-fold | Activation V1/2 ([9]; 10 μM): −33.96 ± 2.06 mV | Activation slope factor k ([9]; 10 μM): 4.77 ± 0.32 mV/e-fold | Inactivation V1/2 (steady-state intermediate, 1 sec prepulse) ([9]; 10 μM): −86.99 ± 2.86 mV | Inactivation slope factor k (1 sec prepulse) ([9]; 10 μM): 4.56 ± 0.1 mV/e-fold | V1/2 of steady-state slow inactivation [9, 16]: −61.39±3.54 | k of steady-state slow inactivation [9, 16]: 14.22±2.14 | V1/2 of steady-state fast inactivation [9, 11]: −86.15±3.62 | k of steady-state fast inactivation [9, 11]: 7.55±0.82 | Inactivation V1/2 (steady-state intermediate, 1 sec prepulse) ([9]; 30 μM): −89.07 ± 5.41 mV | Inactivation slope factor k (1 sec prepulse) ([9]; 30 μM): 5.15 ± 0.31 mV/e-fold | Development of slow inactivation, AF ([9]; 30 μM, at −20 mV): 0.24 ± 0.02 | Development of slow inactivation, AS ([9]; 30 μM, at −20 mV): 0.56 ± 0.01 | Development of slow inactivation, τF ([9]; 30 μM, at −20 mV): 9.14 ± 2.49 ms | Development of slow inactivation, τS ([9]; 30 μM, at −20 mV): 1657.71 ± 180.23 ms | Time constant of INa decay (single exponential) ([9]; 30 μM, at −20 mV, n=4 cells): 0.68 ± 0.15 ms | Development of slow inactivation, AF ([9]; 30 μM, at −40 mV): 0.30 ± 0.02 | Development of slow inactivation, AS ([9]; 30 μM, at −40 mV): 0.67 ± 0.02 | Development of slow inactivation, τF ([9]; 30 μM, at −40 mV): 23.99 ± 2.92 ms | Development of slow inactivation, τS ([9]; 30 μM, at −40 mV): 1845.75 ± 129.03 ms | Kd [9, 12]: 0.47 µM | Kd [9, 13]: 12.1 µM | IC50 ([9]; V0, holding potential −120 mV): 10.4 ± 1.25 µM | IC50 ([9]; V0.5, holding potential −70 mV): 3.25 ± 0.17 µM | Hill Coefficient, block of Nav1.7 INa ([9]; V0, holding potential −120 mV): [0.84 ± 0.09] | Hill Coefficient, block of Nav1.7 INa ([9]; V0.5, holding potential −70 mV): [1.33 ± 0.08]
